Reference: patent US20120065221A1, “Extended Release Oral Pharmaceutical Compositions of 3-Hydroxy-N-Methylmorphinan and Method of Use” (priority 2009, published 2012)
Structures can show the parent of a compound that is named as a salt. Where two headings read alike, the source gives them in different places.

Experiments:
5-HT uptake = target: T1, 5-HT uptake (Rattus norvegicus, UniProt P31652); assay: 5-HT uptake assay; format: biochemical; conditions: rat brain synaptosomes
T1 construct: [^3H]5-HT incorporation into rat brain synaptosomes; from tissue; host or cells: rat brain synaptosomes
T1 sequence (P31652 whole entry): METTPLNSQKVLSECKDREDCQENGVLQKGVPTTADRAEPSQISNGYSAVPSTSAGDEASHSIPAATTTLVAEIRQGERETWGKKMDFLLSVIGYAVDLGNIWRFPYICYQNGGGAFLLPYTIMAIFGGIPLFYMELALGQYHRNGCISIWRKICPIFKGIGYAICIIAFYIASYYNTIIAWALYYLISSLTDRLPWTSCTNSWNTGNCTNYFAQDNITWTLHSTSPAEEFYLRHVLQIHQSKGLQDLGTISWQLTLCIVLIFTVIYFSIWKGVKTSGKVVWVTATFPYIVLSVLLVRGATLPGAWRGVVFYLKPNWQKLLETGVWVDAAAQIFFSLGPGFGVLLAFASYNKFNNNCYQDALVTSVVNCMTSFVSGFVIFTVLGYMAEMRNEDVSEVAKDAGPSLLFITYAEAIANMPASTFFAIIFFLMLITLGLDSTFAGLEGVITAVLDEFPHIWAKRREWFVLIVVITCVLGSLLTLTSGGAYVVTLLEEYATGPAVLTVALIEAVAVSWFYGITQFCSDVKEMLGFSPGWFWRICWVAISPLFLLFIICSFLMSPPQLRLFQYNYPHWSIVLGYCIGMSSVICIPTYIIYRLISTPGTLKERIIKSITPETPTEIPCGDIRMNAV
Method: (§1) This analysis was performed using validated proprietary software.

norepinephrine uptake = target: T2, norepinephrine uptake (Rattus norvegicus, UniProt Q63380); assay: norepinephrine uptake assay; format: biochemical; conditions: rat hypothalamus synaptosomes
T2 construct: [^3H]NE incorporation into rat hypothalamus synaptomsomes; from tissue; host or cells: rat hypothalamus synaptosomes
T2 sequence (Q63380 1-617): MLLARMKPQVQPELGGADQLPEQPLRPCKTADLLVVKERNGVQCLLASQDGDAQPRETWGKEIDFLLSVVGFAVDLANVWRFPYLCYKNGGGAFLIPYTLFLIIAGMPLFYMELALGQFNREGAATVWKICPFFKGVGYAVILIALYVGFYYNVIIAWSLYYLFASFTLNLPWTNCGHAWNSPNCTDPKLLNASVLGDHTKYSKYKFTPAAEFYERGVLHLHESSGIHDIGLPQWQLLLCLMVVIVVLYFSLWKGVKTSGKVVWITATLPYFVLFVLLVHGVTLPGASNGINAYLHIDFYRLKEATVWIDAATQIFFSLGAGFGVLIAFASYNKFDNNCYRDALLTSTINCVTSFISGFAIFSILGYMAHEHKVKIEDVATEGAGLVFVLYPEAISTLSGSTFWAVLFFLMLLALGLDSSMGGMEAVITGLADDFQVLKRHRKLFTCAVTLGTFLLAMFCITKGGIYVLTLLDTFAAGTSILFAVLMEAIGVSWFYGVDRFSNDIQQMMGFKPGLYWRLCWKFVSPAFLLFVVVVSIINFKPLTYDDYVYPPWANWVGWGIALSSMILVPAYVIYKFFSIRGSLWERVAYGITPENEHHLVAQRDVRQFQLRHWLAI
Method: as §1

NMDA = NMDA (Rattus norvegicus, UniProt P35439)
Excerpt: The specific ligand binding to the receptors was defined as the difference between the total binding and the nonspecific binding determined in the presence of an excess of unlabelled ligand. The results were expressed as a percent of control specific binding ((measured specific binding/control specific binding)×100) and as a percent inhibition of control specific binding (100-((measured specific binding/control specific binding)×100)) obtained in the presence of the test compounds. The IC50 values (concentration causing a half-maximal inhibition of control specific binding) and Hill coefficients (nH) were determined by non-linear regression analysis of the competition curves generated with mean replicate values using Hill equation curve fitting (Y=D+[(A−D)/(1+(C/C50)^nH)], where Y=specific binding, D=minimum specific binding, A=maximum specific binding, C=compound concentration, C50=IC50, and nH=slope factor). This analysis was performed using validated proprietary software. The inhibition constants (Ki) were calculated using the Cheng Prusoff equation Ki=IC50/(1+(L/KD)), where L=concentration of radioligand in the assay, and KD=affinity of the radioligand for the receptor). A scatchard plot was used to determine the Kd.

[1] = tested on: serotonin reuptake and norepinephrine reuptake in rat brain synaptosomes; assay: norepinephrine and serotonin reuptake inhibition in rat brain synaptosomes; format: biochemical
[2] = tested on: thermal nociception (hot-plate test); assay: 53° C. hot-plate test of thermal nociception; format: in vivo, rat; conditions: compared with morphine
Method: Methods: Male Sprague-Dawley rats (200-300 grams) were used. Antinociceptive activity was determined by the 53° C. hot-plate test. The rat is placed on a metal plate heated to 53° C., and the latency to withdrawing or shaking or licking of a paw, or escape attempts by jumping were documented. A cut-off latency of 15 sec was employed. Drugs were prepared administered after baseline measurements were performed. Behavioral testing was performed 30, 45 and 60 minutes after dosing. The levorphanol data for were compared to historical morphine data. […] Dose-response curves along with A50 values (i.e., dose calculated to produce a 50% MPE) and confidence intervals were determined from linear regression analysis of the log dose-effect curves. Significant differences in potency between 2 dose-response curves were determined by applying the Student's t-statistic to variances of the A50 values obtained for each dose-response curve. The antinociceptive effect of levorphanol was determined in the 53° C. rat hot-plate test 30, 45 and 60 minutes after dosing. Hot-plate latencies for each time-point were compared to the mean baseline response by ANOVA followed by the post-hoc Fisher's Least Significant Difference test.

[3] = tested on: thermal nociception (tail flick test); assay: Tail flick test of thermal nociception; format: in vivo, rat; conditions: compared with morphine
Method: Objective: To evaluate the efficacy and potency of levorphanol and to compare its potency relative to that of morphine in a model of thermal nociception (tail flick test).
Methods: Male Sprague-Dawley rats (200-300 grams) were used. Antinociceptive activity was determined by a significant increase in the latency to a reflexive flicking of the tail away from a radiant heat (infrared) source projected onto a small area on the ventral aspect of the tail. Baseline tail flick latencies were determined prior to any drug administration. The antinociceptive effect of levorphanol was determined 30, 45 and 60 minutes after dosing. […] Tail flick latencies for each time-point were compared to the mean baseline response by ANOVA followed by the post-hoc Fisher's Least Significant Difference test. A significant increase from the baseline was considered antinociceptive. […] Dose-response curves along with A50 values (i.e., dose calculated to produce a 50% MPE) and confidence intervals were determined from linear regression analysis of the log dose-effect curves. Significant differences in potency between 2 dose-response curves were determined by applying the Student's t-statistic to variances of the A50 values obtained for each dose-response curve.

[4] = American Pain Society 2008, cited from earlier work
[5] = cited from earlier work; for plasma half life: American Pain Society 2008; for half-life of oral levorphanol: Dixon et al 1983
[6] = published pharmacokinetics of oral levorphanol (prescribing information, American Pain Society, Dixon et al)
[7] = IC50, expressed as levorphanol base
[8] = IC50, expressed as levorphanol tartrate

| SMILES | IC50 (5-HT uptake; [7]) [nM] | IC50 (5-HT uptake; [8]) [nM] | IC50 (norepinephrine uptake; [7]) [nM] | IC50 (norepinephrine uptake; [8]) [nM] | inhibition (NMDA) [%] | selectivity for serotonin reuptake inhibition over norepinephrine reuptake inhibition [1] | duration of analgesic action [2] | duration of analgesic action [3] | dose equianalgesic to oral morphine sulfate 30 mg ([4]; acute pain) [mg] | dose equianalgesic to oral morphine sulfate 30 mg ([4]; chronic pain) [mg] | plasma half life [5] [h] | plasma half life ([5]; after 1 week of dosing) [h] | half-life of oral levorphanol ([5]; one patient) | half-life of oral levorphanol ([5]; second patient) [h] | mean time to steady state ([6]; using the average of the two reported values) [h] | time to reach steady state therapeutic concentration upon repeated dosing ([6]; using the higher reported 30 hour half-life) [h] | time to reach steady state therapeutic concentration upon repeated dosing ([6]; using the lower reported 16 hour half-life) [h] |
| --- | --- | --- | --- | --- | --- | --- | --- | --- | --- | --- | --- | --- | --- | --- | --- | --- | --- |
| CN1CC[C@]23CCCC[C@H]2[C@H]1Cc1ccc(O)cc13 [Levorphanol Tartrate, morphinan-3-ol, 17-methyl-, [R—(R*,R*)]-2,3-dihydroxybutane-dioate (1:1) (salt) dihydrate] | 30.2 | 52 | 1220 | 2100 | 91 |  |  |  |  |  |  |  |  |  |  |  |  |
| CN1CC[C@]23CCCC[C@H]2[C@H]1Cc1ccc(O)cc13 [levorphanol, l 3-hydroxy-N-methylmorphinan] |  |  |  |  |  | approximately 40 fold | shorter than that of morphine | shorter than that of morphine | 4 | 1 | 12 to 16 | 90 to 120 | approximately 16 hours | 30 | 115 | 150 | 80 |
